Source: PMC7179274, “6′-β-Fluoro-Homoaristeromycin and 6′-Fluoro-Homoneplanocin A Are Potent Inhibitors of Chikungunya Virus Replication through Their Direct Effect on Viral Nonstructural Protein 1” (Antimicrobial Agents and Chemotherapy, 2020)
“Also recorded” adds a separate entry of the source. Like-named read-outs stand apart in the source and are kept apart here.

Assays:
SFV [1] = test: CPE reduction assay, SFV
[2] = system: FHNA-resistant CHIKV variants; assay type: cell-based; details: for Fold resistance: EC50 variant/EC50 wt; for EC50: read-out: Mean EC50 ± SD
VeroE6 cells = test: Cytotoxicity in uninfected cells (MTS/PMS) of the CPE reduction assay
SINV = test: CPE reduction assay, SINV; details: VeroE6 cells, MOI 0.025
CHIKV [3] = test: Viral load reduction (single-cycle dose response) assay, CHIKV
[4] = system: rCHIKV G230R+K299E and rCHIKV G230R+K299E+*524R; assay type: cell-based, Chikungunya virus; details: 10 μM, both mutant viruses, MOI 1
SFV [5] = test: Viral load reduction (single-cycle dose response) assay, SFV; assay type: cell-based, Semliki Forest virus; details: 12.5 μM, VeroE6, MOI 5, 8 hpi, plaque assay
CHIKV [6] = test: Time-of-drug-addition assay, CHIKV; details: 10 μM, pretreated or treated early (−12 to 4 h)
CHIKV [7] = test: CPE reduction assay, CHIKV
SFV nsP1 K231R+K300E = target: T1, SFV nsP1 K231R+K300E (Semliki forest virus, UniProt P08411, K231R/K300E); assay type: biochemical
T1 sequence (P08411 1-537 K231R/K300E): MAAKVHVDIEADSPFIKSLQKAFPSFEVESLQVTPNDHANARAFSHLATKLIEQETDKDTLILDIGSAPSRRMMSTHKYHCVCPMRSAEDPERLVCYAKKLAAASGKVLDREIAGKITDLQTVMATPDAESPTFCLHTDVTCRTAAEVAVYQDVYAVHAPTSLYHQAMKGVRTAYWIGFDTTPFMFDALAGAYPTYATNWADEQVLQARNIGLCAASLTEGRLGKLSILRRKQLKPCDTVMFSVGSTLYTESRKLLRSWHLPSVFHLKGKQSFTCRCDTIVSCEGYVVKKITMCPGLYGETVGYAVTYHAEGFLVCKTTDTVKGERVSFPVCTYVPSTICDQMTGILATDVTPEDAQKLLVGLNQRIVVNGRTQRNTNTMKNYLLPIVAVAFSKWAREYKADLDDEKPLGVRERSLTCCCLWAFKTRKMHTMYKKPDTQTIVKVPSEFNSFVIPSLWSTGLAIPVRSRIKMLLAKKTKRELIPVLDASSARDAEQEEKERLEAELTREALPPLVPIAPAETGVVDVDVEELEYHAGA

[8] = target: host enzyme SAH hydrolase; parameters: method as in PMID 26010585; details: in vitro; read-out: 50% inhibitory concentration, SAH hydrolase; cited from earlier work
rCHIKV mutants = test: microbe, parasite or virus in culture; assay type: cell-based, Chikungunya virus; details: for EC50: read-out: Mean EC50 ± SD

With `Nc1ncnc2c1ncn2C1C(F)=C(CCO)C(O)C1O` (stereo not shown) [FHNA, 6′-fluoro-homoneplanocin A] the “SI (SFV)” value (SFV [1]; CC50/EC50) was greater than 48, the EC50 (SFV [1]; read-out: EC50 (SFV), VeroE6 cells, MOI 0.025, MTS at 40 hpi, mean ± SD) was 5.2 ± 3.2 µM and the Fold resistance ([2]; CHIKV wt) was 1. The EC50 ([2]; CHIKV wt, VeroE6, MOI 0.05) was 140 ± 10 nM, the Fold resistance ([2]; variant 1a) was 100 and the EC50 ([2]; variant 1a) was 14100 ± 10 nM. It also gave a Fold resistance ([2]; variant 1b) of 24, an EC50 ([2]; variant 1b) of 3400 ± 600 nM and a Fold resistance ([2]; variant 2a) of 12. It also gave an EC50 ([2]; variant 2a) of 1700 ± 700 nM, a Fold resistance ([2]; variant 2b) of 21 and an EC50 ([2]; variant 2b) of 3000 ± 600 nM. For the same compound, the Fold resistance ([2]; variant 3) was 9, the EC50 ([2]; variant 3) was 1300 ± 800 nM and the Fold resistance ([2]; variant 4) was 27. For the same compound, the EC50 ([2]; variant 4) was 3800 ± 300 nM, the Fold resistance ([2]; variant 5) was 13 and the EC50 ([2]; variant 5) was 1800 ± 800 nM. The CC50 (VeroE6 cells; read-out: CC50 (CHIKV assay), CHIKV assay format) was greater than 250 µM, the CC50 (VeroE6 cells; read-out: CC50 (SFV assay), SFV assay format) was greater than 250 µM and the CC50 (VeroE6 cells; read-out: CC50 (SINV assay), SINV assay format) was greater than 250 µM. For the same compound, the “Protection against SINV infection” value (SINV) was “did not confer protection; also recorded: not sensitive”, the “Reduction of CHIKV infectious progeny titers vs infected untreated cells” value (CHIKV [3]; 5 μM, VeroE6, MOI 1, 20 hpi, plaque assay) was 2.5 log10 and the “Levels of genomic, subgenomic and negative-strand CHIKV RNA” value (CHIKV [3]; 0.1 to 10 μM, 8 hpi, in-gel hybridization) was “reduced in a dose-dependent manner”. The “Infectious progeny titers lower than untreated controls” value ([4]; 12 hpi) was “at least 1.5 log10”, the “Infectious progeny titers lower than untreated controls” value ([4]; 24 hpi) was no less than 1.2 log10 and the “Reduction of SFV infectious progeny” value (SFV [5]) was greater than 1 log10. The “CHIKV specific infectivity (genome copies vs infectious virus yield)” value (CHIKV [6]) was “decrease in specific infectivity; also recorded: reduction in CHIKV-specific infectivity”, the “SI (CHIKV)” value (CHIKV [7]; CC50/EC50) was >1,000 and the EC50 (CHIKV [7]; read-out: EC50 (CHIKV), VeroE6 cells, MOI 0.005, MTS at 96 hpi, mean ± SD) was 180 ± 110 nM. The “Response of mutant vs wt SFV nsP1 to treatment” value (SFV nsP1 K231R+K300E; 50 μM to 1 mM, standard conditions) was “no difference between wt and mutant SFV nsP1 proteins”, the “Further reduction in signal in the presence of NAD+” value (SFV nsP1 K231R+K300E; 1 mM compound + 1 mM NAD+, absence of DTT) was “about 6%” and the “Reduction of the signal” value (SFV nsP1 K231R+K300E; 1 mM compound + 1 mM NAD+, nonreducing conditions) was 25%. For the same compound, the Reduction in signal (SFV nsP1 K231R+K300E; 1 mM, nonreducing conditions (absence of DTT)) was “about 20%”, the IC50 [8] was 910 nM and the Fold resistance (rCHIKV mutants; rCHIKV nsP1-G230R + nsP1-K299E + nsP3-*524R, EC50 mutant/EC50 wt) was 122. For the same compound, the EC50 (rCHIKV mutants; rCHIKV nsP1-G230R + nsP1-K299E + nsP3-*524R) was 25600 ± 100 nM, the Fold resistance (rCHIKV mutants; rCHIKV nsP1-G230R + nsP1-K299E, EC50 mutant/EC50 wt) was 87 and the EC50 (rCHIKV mutants; rCHIKV nsP1-G230R + nsP1-K299E) was 18200 ± 4200 nM. The Fold resistance (rCHIKV mutants; rCHIKV nsP1-G230R, EC50 mutant/EC50 wt) was 2, the EC50 (rCHIKV mutants; rCHIKV nsP1-G230R) was 500 ± 330 nM and the Fold resistance (rCHIKV mutants; rCHIKV nsP1-K299E, EC50 mutant/EC50 wt) was 2. For the same compound, the EC50 (rCHIKV mutants; rCHIKV nsP1-K299E) was 500 ± 80 nM, the Fold resistance (rCHIKV mutants; rCHIKV nsP1-L455P, EC50 mutant/EC50 wt) was 5 and the EC50 (rCHIKV mutants; rCHIKV nsP1-L455P) was 1100 ± 1100 nM. It also gave a Fold resistance (rCHIKV mutants; rCHIKV nsP1-R171Q + nsP2-A511S + nsP3-H342Q, EC50 mutant/EC50 wt) of 49, an EC50 (rCHIKV mutants; rCHIKV nsP1-R171Q + nsP2-A511S + nsP3-H342Q) of 10200 ± 2600 nM and a Fold resistance (rCHIKV mutants; rCHIKV nsP1-R171Q + nsP2-A511S, EC50 mutant/EC50 wt) of 33. The EC50 (rCHIKV mutants; rCHIKV nsP1-R171Q + nsP2-A511S) was 6900 ± 2600 nM, the Fold resistance (rCHIKV mutants; rCHIKV nsP1-R171Q + nsP3-A137V, EC50 mutant/EC50 wt) was 18 and the EC50 (rCHIKV mutants; rCHIKV nsP1-R171Q + nsP3-A137V) was 3900 ± 1300 nM. The Fold resistance (rCHIKV mutants; rCHIKV nsP1-R171Q, EC50 mutant/EC50 wt) was 3, the EC50 (rCHIKV mutants; rCHIKV nsP1-R171Q) was 580 ± 370 nM and the Fold resistance (rCHIKV mutants; rCHIKV nsP2-A511S + nsP3-H342Q, EC50 mutant/EC50 wt) was 1. It also gave a Fold resistance (rCHIKV mutants; rCHIKV nsP2-A511S, EC50 mutant/EC50 wt) of 9, an EC50 (rCHIKV mutants; rCHIKV nsP2-A511S) of 1900 ± 600 nM and a Fold resistance (rCHIKV mutants; rCHIKV nsP2-T675A + nsP3-H342Q (H342Q reverted back to wt), EC50 mutant/EC50 wt) of 36. For the same compound, the EC50 (rCHIKV mutants; rCHIKV nsP2-T675A + nsP3-H342Q (H342Q reverted back to wt)) was 7600 ± 200 nM, the Fold resistance (rCHIKV mutants; rCHIKV nsP2-T675A + nsP3-H342Q + nsP3-*524R, EC50 mutant/EC50 wt) was 48 and the EC50 (rCHIKV mutants; rCHIKV nsP2-T675A + nsP3-H342Q + nsP3-*524R) was 10100 ± 6800 nM. It also gave a Fold resistance (rCHIKV mutants; rCHIKV nsP2-T675A, EC50 mutant/EC50 wt) of 4, an EC50 (rCHIKV mutants; rCHIKV nsP2-T675A) of 800 ± 80 nM and a Fold resistance (rCHIKV mutants; rCHIKV nsP3-*524R, EC50 mutant/EC50 wt) of 40. It also gave an EC50 (rCHIKV mutants; rCHIKV nsP3-*524R) of 8500 ± 2300 nM, a Fold resistance (rCHIKV mutants; rCHIKV nsP3-G177R, EC50 mutant/EC50 wt) of 2 and an EC50 (rCHIKV mutants; rCHIKV nsP3-G177R) of 510 ± 20 nM. For the same compound, the Fold resistance (rCHIKV mutants; rCHIKV nsP3-H342Q, EC50 mutant/EC50 wt) was 5, the EC50 (rCHIKV mutants; rCHIKV nsP3-H342Q) was 940 ± 10 nM and the Fold resistance (rCHIKV mutants; rCHIKV wt, EC50 recombinant mutant/EC50 wt) was 1. The EC50 (rCHIKV mutants; rCHIKV wt, VeroE6, MOI 0.05) was 210 ± 70 nM.
